Results published in patent US10301357B2, “Therapeutics for the induction of endogenous steroidogenesis and methods associated with their identification” (THE ROYAL INSTITUTION FOR THE ADVANCEMENT OF …, priority 2013, dated 2019).
“Also recorded” adds a separate entry of the source. Square brackets hold non-standard residues; d marks the D form. Peptide text beside a SMILES is read from it. dPhe(4-Cl) = N[C@H](Cc1ccc(Cl)cc1)C(=O)O; d2Nal = N[C@H](Cc1ccc2ccccc2c1)C(=O)O; dCit = NC(=O)NCCC[C@@H](N)C(=O)O; d3Pal = N[C@H](Cc1cccnc1)C(=O)O

How the values were obtained:
[1] = test system: MA-10 mouse Leydig tumor cells; experiment: Progesterone production by MA-10 cells after 8-Br-cAMP (RIA); type: cell-based; conditions: 10 μM 19-Atriol with TVS167, 8-Br-cAMP 120 min
Method: Cell culture, treatments, and steroid measurement. MA-10 mouse Leydig tumor cells were maintained in DMEM/Ham's nutrient mixture F12 (Gibco, Burlington, ON) supplemented with 5% fetal bovine serum, 2.5% hoarse serum, and 1% penicillin and streptomycin at 37° C. and 3.7% CO2. Cells were incubated in serum-free cell culture media supplemented with 1 mM 8-Bromo-cAMP (Enzo Biosciences, Farmingdale, N.Y.) or […] (50 ng/ml) hCG for 15, 30, 60, and 120 min or as indicated. Human NCL-H295R cells were maintained in DMEM/F12 media supplemented with 2.5% Ultroser G (Pall Biospera, Mississauga, ON), 1% penicillin/streptomycin (Invitrogen, Carlsbad, Calif.), and 1% ITS+ Premix (BD Biosciences, Franklin Lakes, N.J.) in a humidified chamber at 37° C. and 5% CO2.
Experiments involving the TV peptides included 1×10^3 MA-10 or NCL-H295R cells, which were initially cultured for 24 hrs. Serum-free media were supplemented with 250 nM TV fusion peptides, and cells were incubated for 90 min after optimization. […]
Progesterone or testosterone levels were measured with specific RIAs in triplicate using commercial anti-sera from rabbit and sheep, respectively (MP Biomedicals, Santa Ana, Calif.). Protein levels in MA-10 cell lysates were determined with the Bradford dye assay (Bio-Rad). LH and corticosterone levels were measured with rat-specific ELISA kits (CUSABIO, Wuhan, China).

[2] = test system: adult Sprague-Dawley rats; experiment: Cetrorelix i.p. injection, suppression of T and LH; type: in vivo, rat
Method: Animals studies. Animals were handled according to protocols approved by the McGill University Animal Care and Use Committees. 60- to 64-day-old male Sprague-Dawley rats were purchased from Charles River, Senneville, QC. Rats were provided standard diets and tap water ad libitum and were maintained in controlled conditions (24° C., 12-h light, 12-h dark schedule). Animals were euthanized, and the testes were either immediately used for organ culture or intratesticular fluid collection, or testes and adrenal glands were snap-frozen for sectioning. Bolus injections with water or indicated doses of TV peptides were performed after administering isofluorane anesthesia. Rats were injected with either water or the indicated dose of TV fusion peptide. When FGIN-1-27 (Sigma-Aldrich, St. Louis, Mo.) was used, 8.5 μg in 50 μl (390 μM) of the compound in 1% DMSO solution containing Tween-20™ was injected into one of the testes of 68-72 day old Sprague-Dawley rats. Animals were incubated in standard conditions for 2 hrs. Surgeries were performed on 60- to 64-day-old rats bolus injection of water or TV peptides. Alzet mini-osmotic pumps releasing 75 ng of filled with water or a TV peptide or water over a course of 24 hrs was surgically implanted in the abdomen. The pumps were connected to a polyethylene catheter tubing (Alzet) and directed to the injected testis. […]

[3] = test system: Sprague-Dawley rats; experiment: FGIN-1-27 bolus intratesticular injection, T levels after 2 hrs; type: in vivo, rat; conditions: for intratesticular T levels / plasma T levels: 8.5 μg bolus, 2 hrs
Method: Animals studies. Animals were handled according to protocols approved by the McGill University Animal Care and Use Committees. 60- to 64-day-old male Sprague-Dawley rats were purchased from Charles River, Senneville, QC. Rats were provided standard diets and tap water ad libitum and were maintained in controlled conditions (24° C., 12-h light, 12-h dark schedule). Animals were euthanized, and the testes were either immediately used for organ culture or intratesticular fluid collection, or testes and adrenal glands were snap-frozen for sectioning. Bolus injections with water or indicated doses of TV peptides were performed after administering isofluorane anesthesia. Rats were injected with either water or the indicated dose of TV fusion peptide. When FGIN-1-27 (Sigma-Aldrich, St. Louis, Mo.) was used, 8.5 μg in 50 μl (390 μM) of the compound in 1% DMSO solution containing Tween-20™ was injected into one of the testes of 68-72 day old Sprague-Dawley rats. Animals were incubated in standard conditions for 2 hrs. Surgeries were performed on 60- to 64-day-old rats bolus injection of water or TV peptides. Alzet mini-osmotic pumps releasing 75 ng of filled with water or a TV peptide or water over a course of 24 hrs was surgically implanted in the abdomen. The pumps were connected to a polyethylene catheter tubing (Alzet) and directed to the injected testis. The pump released 75 ng TV peptide to the testis over a course of 24 hrs at the rate of 1 μl/hour. GnRH antagonist, Cetrorelix™ (Sigma Aldrich) was injected into 59-day-old rats intraperitoneally (i.p.) at 0.4 mg/animal/day for 0-4 days (Horvath et al. 2004). Animal dissection was performed after CO2 anesthesia. Cardiac puncture was used for blood collection, and further centrifugation yielded serum separation. Testes were dissected and either decapsulated for intratesticular fluid collection or snap-frozen for sectioning.
To further assess the link between VDAC1 and TSPO function in vivo, the acute effect of TVS167 was compared to that of a well characterized high affinity TSPO drug ligand, N,N-dihexyl-2-(4-fluorophenyl)indole-3-acetamide (FGIN-1-27) (Perheentupa et al. 2009), in the absence of LH signaling. Sprague-Dawley rats of 68-72 days old were given an i.p. injected of either H2O or 0.4 mg Cetrorelix™ for 0-4 days. On day 4, a bolus intratesticular injection of 8.5 μg FGIN-1-27 or its solvent (control) was given to one testis per animal. To assess the acute effect of this TSPO drug ligand on steroidogenesis intratesticular and circulating T levels were measured after 2 hrs.

Structure (SMILES): C[C@]12CC[C@H]3[C@@H](CC=C4C[C@@H](O)CC[C@@]43CO)[C@@H]1CC[C@@H]2O [19-Atriol]
- effect on TVS167-stimulated steroid formation [1]: stimulatory effect of TVS167 on steroid formation was blocked

Structure (SMILES): CC(=O)N[C@H](Cc1ccc2ccccc2c1)C(=O)N[C@H](Cc1ccc(Cl)cc1)C(=O)N[C@H](Cc1cccnc1)C(=O)N[C@@H](CO)C(=O)N[C@@H](Cc1ccc(O)cc1)C(=O)N[C@H](CCCNC(N)=O)C(=O)N[C@@H](CC(C)C)C(=O)N[C@@H](CCCNC(=N)N)C(=O)N1CCC[C@H]1C(=O)N[C@H](C)C(N)=O [Cetrorelix] (Ac-[d2Nal][dPhe(4-Cl)][d3Pal]SY[dCit]LRP[dA]-NH2)
- T levels in testes and serum ([2]; 0.4 mg/day i.p. for four days): completely suppressed; also recorded: blocked
- LH release ([2]; adult rats): blocked LH release

Structure (SMILES): CCCCCCN(CCCCCC)C(=O)Cc1c(-c2ccc(F)cc2)[nH]c2ccccc12 [FGIN-1-27, N,N-dihexyl-2-(4-fluorophenyl)indole-3-acetamide]
- intratesticular T levels ([3]; Cetrorelix-treated rats): significant increase
- plasma T levels ([3]; Cetrorelix-treated rats): increased
- intratesticular T levels ([3]; control (H2O i.p.) rats): significant increase
- plasma T levels ([3]; control (H2O i.p.) rats): increased only in the Cetrorelix-treated animals
- acute T formation in vivo compared with TVS167 ([3]; control and Cetrorelix-treated rats): to a lesser extent that TVS167
